In US6218378A, “Anti-tumor agents comprising pyridyl-substituted metal-diphosphine complex” (priority 1994, dated 2001):
Several values for one entry are separate records, joined by “and”; a condition that tells them apart may be missing. Identical values can stand only once.

Tests used:
[1] = tested on: four human tumour cell lines (MM96, HeLa, CI-80-13S, HeLa-S1a); test: cytotoxicity against four human tumour cell lines in vitro (FIGS. 3 and 4); format: cell-based; settings: for cytotoxicity (FIGS. 3 and 4): all four cell lines; for selectivity against the cisplatin-resistant lines: compared with formula (I) or (V), R=4-pyridyl and 3-pyridyl
Excerpt: (§1) The origins of the human melanoma cell line MM96 has been described in Whitehead et al., 1973, Pigment Cell 1 383-389. The cell line JAM is described in Ward et al., 1987, Cancer Res. 47 2662-2667. The origin of the ovarian tumour line CI-80-13S has been described in Bertoncello et al., 1985, Aust. J. Exp. Biol. Med. Sci. 63 241-243. The origin of the cervical carcinoma cell line HeLa has been described in Maynard et al., 1986, Cancer Res. 46 5009-5093. The subclone HeLa-S1a was derived by stably transfecting HeLa with PAI-2 cDNA described in Schleuning et al., 1987, Mol. Cell. Biol. 7 4564-4567 in the sense orientation under the control of the cyto-megalovirus (CMV) promoter. The stably infected subclone was isolated following G418 selection and expression of the PAI-2 transgene characterised by immunoblot analysis and quantitated by ELISA. All of these cell lines have been used before for carrying out cell survival assays referred to in FIGS. 1-4. Cells were cultured at 37° in 5% CO2 /air in Roswell Park Memorial Institute medium 1640 containing 5% foetal calf serum, 100 μg/ml streptomycin, 100 IU/ml penicillin, 1 mM pyruvate, 50 μM nicotinamide and 3 mM HEPES.
(§2) Cells were seeded in microtitre plates (lowest number for fastest growing cells: 1000 HeLa, 2000 MM96, […] CI-80-13S cells per 6 mm well in 100 μl), normally but not necessarily allowed to attach overnight, then 5 dilutions of the drug were added to duplicate wells. After an overnight incubation to equilibrate the pH, the lids were quickly taped around the edge to prevent evaporation. The plates were incubated for 5-7 days, until the controls were nearly confluent. Cell growth/morphology was scored at each dose visually (inverted microscope). The medium was then replaced by 50 μl fresh medium containing 2 u/Ci/ml [methyl-3H]-thymidine (5 Ci/mmol; Radiochemical Centre, Amersham, Bucks., U.K.) and incubated for 2-4 hr. The cells were washed with PBS (0.1 M NaCl, 50 mM phosphate, pH 7.2), detached with 100 μl of PBS containing 0.2 mg/ml trypsin and 10 mM EDTA, and washed onto a glass fibre GF/a filter mat with water using a cell harvester. Later, wells were checked under the microscope to ensure complete detachment and washout. Radioactivity was determined in an LKB Beta Plate counter and the results plotted as log % control cpm versus dose. The ID50 (dose required to give 50% survival) was interpolated from this survival curve.
We have tested the following compounds of formula (III) against the four human tumour cell lines described above, i.e.: […]

[2] = tested on: 41M, 41M-cisR, SKOV-3, CH1, CH1-cisR; test: growth inhibition of cisplatin-sensitive and -resistant ovarian cancer cell lines (Table 2, FIG. 5); format: cell-based, human
Excerpt: The sensitive CH1 cell line was established from a patient with drug-sensitive disease and its resistant variant (CH1-cisR) was generated by prolonged in vitro exposure to cisplatin during which it acquired more efficient DNA repair as described in Kelland et al., 1992, Cancer Research 52 3857-3864. The sensitive 41M cell line was also established from a patient with a sensitive tumor and its resistant variant (41M-cisR) was generated in the same way but acquired decreased uptake across the cell membrane (Kelland et al., 1992, supra). The intrinsically-resistant SKOV-3 ovarian carcinoma cell line has high glutathione levels as described in Mistry et al., 1991, Brit. J. Cancer 64 215-220 and reduced levels of bi-functional cisplatin-DNA lesions as described in McKeage et al., 1994, Brit. J. Cancer 69 1-7. The characteristics of the cell line pairs CH1/CH1 cisR, 41M/41McisR and 41M/SKOV3 are described in Table 3.
(§3) The cytotoxicity assay used sulforhodamine B which stains the basic amino acids. Cells (5000 or 2500 for SKOV-3) were seeded into 96 well microtitre plates (Linbro, Flow Laboratories Inc., USA) in 0.1 ml of medium. After an overnight incubation, the metal phosphine compounds were dissolved in 0.9% NaCl or ethanol and diluted with medium, were added at concentrations ranging from 0.005 to 50 μM to quadruplicate wells. After 96 hrs incubation, the medium was removed and cells were fixed in 0.2 ml of cold 10% (w/v) trichloroacetic acid (May & Baker Ltd., Dagenham, England) for 30 mins at 4° C. The plates were washed five times with tap water. Then 0.1 ml of 0.4% (w/v) sulforhodamine B (Sigma Chemical Co., St. Louis, USA) dissolved in 1% acetic acid (Ajax Chemicals, Australia) was added to the wells and left to stand at room temperature for 15 mins. The plates were then washed five times with 1% acetic acid and left to dry overnight. The next morning, 0.1 ml of 10 mM Tris buffer (Sigma Chemical Co., St. Louis, USA) was then added to each plate to solubilise the dye. Absorbance was read at a wavelength of 570 nm using a 96 well plate reader Dynatech MR 5000 plate reader. Absorbance of treatment cells was expressed as a percentage of positive (drug-free) controls. The results were plotted as percentage growth versus drug concentration. The drug concentration resulting in a 50% growth inhibition was termed the IC50. The passage numbers used for the cytotoxicity assay from each cell line were, CH1 passages 50-58, CH1 cis-R passages 77-83, 41M passages 50-63, 41M cisR 81-92 and SKOV-3 passages 106-128.

41M = test: cytotoxicity assay, sulforhodamine B; format: cell-based, human; settings: 96 hrs, mean ± SD or individual values when n<3
Experimental: (§4) In Table 2, reference is made to cell lines 41M, 41M-cisR, SKOV-3, CH1 and CH1-cisR.
(§5) J. Cancer 69 1-7. The characteristics of the cell line pairs CH1/CH1 cisR, 41M/41McisR and 41M/SKOV3 are described in Table 3.
as §3, with “concentration.” for “concentration. The drug concentration resulting in a 50% growth inhibition was termed the IC50. The passage numbers used for the cytotoxicity assay from each cell line were, CH1 passages 50-58, CH1 cis-R passages 77-83, 41M passages 50-63, 41M cisR 81-92 and SKOV-3 passages 106-128.”

41M-cisR = test: cytotoxicity assay, sulforhodamine B; format: cell-based, human; settings: 96 hrs, mean ± SD or individual values when n<3
Experimental: as §4, §5
as §3, with “concentration.” for “concentration. The drug concentration resulting in a 50% growth inhibition was termed the IC50. The passage numbers used for the cytotoxicity assay from each cell line were, CH1 passages 50-58, CH1 cis-R passages 77-83, 41M passages 50-63, 41M cisR 81-92 and SKOV-3 passages 106-128.”

SKOV-3 = test: cytotoxicity assay, sulforhodamine B; format: cell-based, human; settings: 96 hrs, mean ± SD or individual values when n<3
Experimental: as §4, §5
as §3, with “concentration.” for “concentration. The drug concentration resulting in a 50% growth inhibition was termed the IC50. The passage numbers used for the cytotoxicity assay from each cell line were, CH1 passages 50-58, CH1 cis-R passages 77-83, 41M passages 50-63, 41M cisR 81-92 and SKOV-3 passages 106-128.”

JAM = test: cell survival after drug treatment ([methyl-3H]-thymidine); format: cell-based, human; settings: mean ± SD or individual values when n<3, 5-7 days
Excerpt: (§6) In FIGS. 1-4 and Table 1, reference is made to the cell lines HeLa, HeLa-S1a, JAM, CI-80-13S and MM96.
as §1, §2

MM96 = test: as above; format: cell-based, human; settings: for IC50: MM96L, mean ± SD or individual values when n<3, 5-7 days
Excerpt: as §6, §1, §2

HeLa = test: as above; format: cell-based, human; settings: for IC50: HeLa, mean ± SD or individual values when n<3, 5-7 days
Excerpt: as §6, §1, §2

CI-80-13S = test: as above; format: cell-based, human; settings: for IC50: CI-80-13S, mean ± SD or individual values when n<3, 5-7 days
Excerpt: as §6, §1, §2

HeLa-S1a = test: as above; format: cell-based, human; settings: for IC50: HeLa-S1a, mean ± SD or individual values when n<3, 5-7 days
Excerpt: as §6, §1, §2

[3] = tested on: CI-80-13S vs JAM; HeLa-S1a vs HeLa; test: relative cytotoxic potency in cisplatin-resistant and non-resistant cells (Table 1); format: cell-based, human; settings: CI80-13-S vs JAM; HeLaS1a vs HeLa
Excerpt: as §1, with “All of these cell lines have been used before for carrying out cell survival assays referred to in FIGS. 1-4. Cells were cultured at 37° in 5% CO2 /air in Roswell Park Memorial Institute medium 1640 containing 5% foetal calf serum, 100 μg/ml streptomycin, 100 IU/ml penicillin, 1 mM pyruvate, 50 μM nicotinamide and 3 mM HEPES.” left out
Cells were seeded in microtitre plates (lowest number for fastest growing cells: 1000 HeLa, 2000 MM96, […] CI-80-13S cells per 6 mm well in 100 μl), normally but not necessarily allowed to attach overnight, then 5 dilutions of the drug were added to duplicate wells. […] Cell growth/morphology was scored at each dose visually (inverted microscope). […] Radioactivity was determined in an LKB Beta Plate counter and the results plotted as log % control cpm versus dose. […]

CH1-cisR = test: cytotoxicity assay, sulforhodamine B; format: cell-based, human; settings: 96 hrs, mean ± SD or individual values when n<3
Experimental: as §4, §5
as §3, with “concentration.” for “concentration. The drug concentration resulting in a 50% growth inhibition was termed the IC50. The passage numbers used for the cytotoxicity assay from each cell line were, CH1 passages 50-58, CH1 cis-R passages 77-83, 41M passages 50-63, 41M cisR 81-92 and SKOV-3 passages 106-128.”

CH1 = test: cytotoxicity assay, sulforhodamine B; format: cell-based, human; settings: 96 hrs, mean ± SD or individual values when n<3
Experimental: as §4, §5
as §3, with “concentration.” for “concentration. The drug concentration resulting in a 50% growth inhibition was termed the IC50. The passage numbers used for the cytotoxicity assay from each cell line were, CH1 passages 50-58, CH1 cis-R passages 77-83, 41M passages 50-63, 41M cisR 81-92 and SKOV-3 passages 106-128.”

Compound	cytotoxicity (FIGS. 3 and 4) [1]	selectivity against the cisplatin-resistant lines [1]	selectivity and cytotoxicity in ovarian cancer cell-lines (FIG. 5) [2]	IC50 (41M) [nM]	IC50 (41M-cisR) [nM]	IC50 (SKOV-3) [nM]	IC50 (JAM)	IC50 (MM96) [nM]	IC50 (HeLa) [nM]	IC50 (CI-80-13S) [nM]	IC50 (HeLa-S1a) [nM]	sensitivity of cisplatin-resistant cell lines versus non-resistant cells [3]	sensitivity of cisplatin resistant cells versus non-resistant cells ([2]; 41M/41M-cisR and CH1/CH1-cisR pairs)	IC50 (CH1-cisR) [nM]	IC50 (CH1) [nM]	cytotoxicity (FIGS. 1 and 2) (MM96; MM96 melanoma in vitro)	cytotoxicity (FIGS. 1 and 2) (HeLa; HeLa cervical carcinoma in vitro)	cytotoxicity (FIGS. 1 and 2) (CI-80-13S; CI-80-13S ovarian in vitro)	cytotoxicity (FIGS. 1 and 2) (HeLa-S1a; HeLa-S1a in vitro)
O=[N+]([O-])[O-].O=[N+]([O-])[O-].[Ag+].[Ag+].c1ccc(P(CCP(c2ccccn2)c2ccccn2)c2ccccn2)nc1.c1ccc(P(CCP(c2ccccn2)c2ccccn2)c2ccccn2)nc1.c1ccc(P(CCP(c2ccccn2)c2ccccn2)c2ccccn2)nc1.c1ccc(P(CCP(c2ccccn2)c2ccccn2)c2ccccn2)nc1 [[Ag2 (d2pype)4](NO3)2]	cytotoxic to all four cell lines	do not show the same selectivity	–	–	–	–	–	–	–	–	–	–	–	–	–	–	–	–	–
[Cl-].[Cl-].c1ccc([P+]2(c3ccccn3)CC[P+](c3ccccn3)(c3ccccn3)[Au-3]23[P+](c2ccccn2)(c2ccccn2)CC[P+](c2ccccn2)(c2ccccn2)[Au-3]2([P+](c4ccccn4)(c4ccccn4)CC[P+]2(c2ccccn2)c2ccccn2)[P+](c2ccccn2)(c2ccccn2)CC[P+]3(c2ccccn2)c2ccccn2)nc1 [[Au2 (d2pype)4]Cl2]	cytotoxic to all four cell lines	do not show the same selectivity	cytotoxic to the 41M pair and the resistant SKOV-3	700	600	1100	100 nM and 390 nM	90	240 ± 100	60 ± 30	60	more sensitive	–	–	–	–	–	–	–
[Au+].[Au+].[Cl-].[Cl-].c1cncc(P(CCP(c2cccnc2)c2cccnc2)c2cccnc2)c1.c1cncc(P(CCP(c2cccnc2)c2cccnc2)c2cccnc2)c1 [[Au2 (d3pype)2 Cl2]]	–	–	–	70000 ± 12000	47000	71000 ± 12000	–	56000	38000	400	400	–	consistently more sensitive	500 ± 100	900 ± 400	inactive	inactive	selectively cytotoxic	selectively cytotoxic
